Consider 3 molecules from US7432045B2 (priority 2003, dated 2008).

What is called EC50 is the concentration that produces a half-maximal response. Higher therefore signals weaker potency.

A short description of data set [1]: MTS assay. To be noted: human, HeLa cells. (Tetrazolium dyes change colour on reduction, which living cells bring about.)
The nature of data set [2]: MTS assay. To be noted: human, DP-9 cells (foreskin fibroblast).
Data set [3] in a line: MTS assay. To be noted: human, TM-1 cells (trabecular meshwork).
Data set [4] is described as follows: MTS assay. The note with it: human, CEMx174 cells (T-B hybridoma).
A short description of data set [5]: MTS assay. The note with it: human, NIKS cells (normal immortalized keratinocytes).
Data set [6] can be described thus: MTS assay. To be noted: African green monkey, Vero cells.
Data set [7] has as its system Vero, HeLa, CV-1PD, TM-1, DP-9, CEMx174, NIKS, W12E cells. In words: MTS assay, eight cell lines. The note with it: eight cell lines.
Data set [8] can be described thus: MTS assay. To be noted: human, W12E cells (cervical carcinoma cell line).
A short description of data set [9]: MTS assay. To be noted: African green monkey, CV-1PD cells (kidney).
Another data set relates to vagina. The note with it: mouse, in vivo.
For another data set, the target named is T1, trypsin (Sus scrofa, UniProt P00761).
T1 construct: purchased BioWhittaker 17-160E
T1 sequence (P00761 9-231): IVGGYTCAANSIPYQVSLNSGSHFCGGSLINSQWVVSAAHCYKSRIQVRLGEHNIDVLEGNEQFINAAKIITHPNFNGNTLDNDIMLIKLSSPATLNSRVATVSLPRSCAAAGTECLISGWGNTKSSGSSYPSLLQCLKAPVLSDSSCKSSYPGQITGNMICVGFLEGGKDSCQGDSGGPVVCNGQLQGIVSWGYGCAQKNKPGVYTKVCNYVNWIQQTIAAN
As to the kind of experiment: Trypsinization of peptides. To be noted: 0.005 or 0.01% trypsin, 1 h at 37° C. How it is done:
Trypsinization of peptides: Peptides dissolved in serum-free DMEM were exposed to 0.005 or 0.01% trypsin for 1 h at 37° C. The trypsin was then inactivated with a 1.3-fold molar excess of soybean trypsin inhibitor and the ability of the peptides to inactivate virions was tested as described above (centrifugation assay). In controls, trypsin was inactivated before it was added to the peptides.
In Panel B, peptides in serum-free medium were pre-treated with active trypsin (open bars) or inactivated trypsin (shaded bars) for 1 h at 37° C. before they were added to virions for 1 h at 37° C. (see Example 1). The treated virions were then pelleted and resuspended in serum-supplemented medium and assayed for infectivity without further trypsinization. The peptide concentrations were as high or higher than those used in Panel A: […] TAT-C, 50 μM bKLA, 200 μM EB and bHOM-9. Trypsin concentrations used in both Panels A and B, were 0.005% (for bKLA, EB and bHOM-9) or 0.01% (for TAT-C and the ‘no peptide’ control).

The test system of data set [10] is HSV-1 KOS mutant hrR3. In words: Release of preadsorbed virus into the culture medium. The format is cell-based. How it is done: Release of preadsorbed virus into the culture medium: Virus preadsorbed to Vero cells (m.o.i.=0.02) was exposed to heparin (porcine intestinal mucosa; Sigma-Aldrich Co., St. Louis Mo.; #H9399) or to peptides in 40 μL of serum-supplemented DMEM. After 1 h at 4° C., the culture medium and two 40 μL rinses were collected and pooled from eight identically treated wells. Pooled samples were centrifuged at 14,000×g in an Eppendorf 5415 centrifuge for 99 min at 4° C. or they were first adjusted to 0.5 M NaCl by adding 2 M NaCl dissolved in serum-supplemented DMEM prior to centrifugation. Supernatants were aspirated, the pellets were resuspended in 120 μL serum-supplemented DMEM and duplicate 50 μL aliquots were assayed for infectivity in Vero cell cultures. Calculations of the amount of released virus assumed 47% virus recovery in the centrifugation step, since control experiments had established that 47% of virus input was recovered regardless of whether the virus was sedimented in the presence or absence of 0.5 M NaCl.
In this example pre-adsorbed virus was exposed to heparin (FIG. 19 Panels A, B) or TAT-Cd peptide (FIG. 19 Panels C, D) for 1 h at 4° C. (FIG. 19 Panels A, B, C) or 18° C. (FIG. 19 Panel D) and any virus released into the culture medium during this time was collected and pelleted in the presence (◯) or absence (▴) of 0.5 M NaCl and assayed for infectivity as described in Example 1. […] Virus inhibition (●) corresponds to the number of LacZ+ cells seen in the absence of inhibitor minus the number of LacZ+ cells seen in the presence of inhibitor and is equivalent to the maximal amount of virus potentially released into the culture medium as a result of virus inhibition. Panel B compares the amount of infectious virus recovered in the presence (◯; data from Panel A) and absence (▴) of 0.5 M NaCl at an expanded scale.

In data set [11] the test system is HSV-1 KOS mutant hrR3. In words: Inactivation of pre-adsorbed virus (virus inactivation). The format is cell-based. To be noted: pre-adsorbed virus. How it is done: Two assays were used to assess the ability of the TAT peptides to inhibit infection of Vero cells with the hrR3 virus. In both assays, the virus was preadsorbed to cells at 4° C. and entry was initiated in the presence of peptide by shifting the cultures to a permissive temperature (30-37° C.). One hour later, the peptide was rinsed off. The entry blocking activity was measured in half of the cultures, in which any extracellular virus remaining after the peptide treatment was inactivated with low pH citrate buffer. The rest of the cultures were exposed to PBS instead of citrate buffer and used to measure virus inactivation. Virus inactivation depended on persistent effects of the peptide lasting for a period of eight hours. At the end of that period, all cultures were fixed and infected cells were detected by staining with X-gal.
Virus (m.o.i.=0.025) was preadsorbed to Vero cells for 1 h at 4° C. before cultures were exposed to TAT-C (FIG. 15A), bTAT-9X (FIG. 15B), or n50,51TAT-C (FIGS. 15C, 15D) for 1 h at 33 (FIGS. 15A, 15B), 31 (FIG. 15C), or 37° C. (FIG. 15D). […] Inhibition of entry was measured in the citrate-treated cultures, in which any remaining external virus was inactivated immediately following exposure to peptide (●). Persistent virus inactivation lasting, at least in part, for the 8 h period following exposure to peptide, was measured in the PBS-treated cultures (◯). The IC50s measured in these experiments are included in Table 5.

A further data set concerns hrR3 virions. As to the kind of experiment: Inactivation of virions in solution. The format is cell-based, HSV-1. To be noted: 200 μM peptide. How it is done: Inactivation of virions: To assess the ability of peptides to inactivate virions, 3-4×10^6 pfu/mL of virus was mixed on ice with peptide in serum-free DMEM and incubated for 1 h at 4 or 37° C. Aliquots (10 μL) were diluted 1000-fold into peptide-free serum-supplemented DMEM at 23° C. and 50 μL aliquots were assayed in triplicate for infectivity in Vero cell cultures (dilution assay). Alternatively, 10 μL aliquots were diluted into 1 mL of ice-cold peptide-free serum-supplemented DMEM and the virus was pelleted as described above (centrifugation assay). Viral pellets were then resuspended in 250 μL serum-supplemented DMEM and 50 μL aliquots were assayed in triplicate for infectivity in Vero cell cultures.
Some of the virus diluted without the addition of NaCl was pelleted immediately (Control), while the rest of the diluted virus was stored at 4° C. and pelleted 19 h later. The virus was pelleted and assayed for infectivity as described in Example 1.

For a further data set, the system named is cornea. In words: In vivo peptide toxicity, cornea. On the set-up: species or system BALB/C mice. How it is done:
(i) Cornea: Four-6-week-old female BALB/C mice (Harlan Sprague Dawley, Indianapolis, Ind.) were anesthetized by halothane inhalation (3-5%). A 2.0 μL drop of serum-free 5×DMEM solution containing 6.1 mM EB, 6.1 mM EBX, 7.5 mM TAT-C, 7.5 mM n50,51 TAT-C, 7.5 mM TAT-Cd, or 11.2 mM bHOMd or serum-free DMEM only (control) was then placed on the cornea and the mice were returned to their cages. Each group consisted of 5 mice, except for 11.2 mM bHOMd, and 7.5 mM TAT-Cd, which consisted of 4 mice. Only the right eye in each mouse received the peptide. Treatments were given 4 times per day at least 2 hrs apart for 7 days. On days 1, 5, and 7, the mice were examined microscopically for evidence of blepharitis, punctate keratopathy, dendrite ulceration and geographic ulceration. Damage to the corneal epithelium was assessed by staining with 1.0% […] and examination under a microscope with blue light. Blepharitis was scored: 1+ for noticeable puffy eyelids, 2+ for puffy eyelids with moderate crusting, 3+ for eye 50% swollen shut with severe crusting, and 4+ for eye totally swollen and crusted shut (Brandt et al., 1992). Punctate keratopathy, dendrite ulceration, and geographic ulceration were scored: 1+ for <25% of the cornea involved, 2+ for 25-50% involved, 3+ for 50-75% involved, and 4+ for >75% involved. The mean disease score for each group of mice on each day was calculated by the sum of disease scores in each group on each day divided by the numbers of mice in that group. On day 7, following the last treatment, the mice were sacrificed and the eyes were removed, fixed in 10% formalin, embedded in paraffin, sectioned (5μ each), and stained with hematoxylin and eosin as we have described previously (Brandt et al., 1996). Sections were then examined for evidence of damage to the cornea, sclera, lens, and retina.

Peptide text beside a SMILES is read from it. * marks the point of attachment. Biotin = O=C1N[C@H]2[C@H](CS[C@H]2CCCCC(=O)*)N1; Ahx = NCCCCCC(=O)O

As for `CC[C@H](C)[C@H](NC(=O)[C@H](CCCCN)NC(=O)[C@@H](NC(=O)[C@H](CCC(N)=O)NC(=O)[C@H](CCCNC(=N)N)NC(=O)CCCCCNC(=O)CCCC[C@@H]1SC[C@@H]2NC(=O)N[C@@H]21)[C@@H](C)CC)C(=O)N[C@@H](Cc1c[nH]c2ccccc12)C(=O)N[C@@H](Cc1ccccc1)C(=O)N1CCC[C@H]1C(=O)N[C@@H](CC(N)=O)C(=O)N[C@@H](CCCNC(=N)N)C(=O)N[C@@H](CCCNC(=N)N)C(=O)N[C@@H](CCSC)C(=O)N[C@@H](CCCCN)C(=O)N[C@@H](Cc1c[nH]c2ccccc12)C(=O)N[C@@H](CCCCN)C(=O)N[C@@H](CCCCN)C(N)=O` [bHOM] ({Biotin-Ahx}-RQIKIWFPNRRMKWKK-NH2; N-terminus and C-terminus assumed), the EC50 in “MTS assay [1]” was 100 µM; in the data set “MTS assay [2]”, 150 µM; in the data set “MTS assay [3]” it was > 200 µM; in “MTS assay [4]” it was 50 µM; in “MTS assay [5]”, > 200 µM; in the data set “MTS assay [6]” it was 75 µM. Also, the EC50 in “MTS assay [8]” was > 200 µM; in “MTS assay [9]”, 180 µM. The “cytotoxicity to cells (MTS), overall” value in data set [7] is on record as “generally not cytotoxic”.

Regarding nonoxynol-9 [N−9], the “effect on vaginal tissues (H&E sections)” value in the data set with vagina was “No differences in the appearance of the tissues”.

Turning to `N=C(N)NCCC[C@@H](NC(=O)CN)C(=O)N[C@H](CCCCN)C(=O)N[C@H](CCCCN)C(=O)N[C@H](CCCNC(=N)N)C(=O)N[C@H](CCCNC(=N)N)C(=O)N[C@H](CCC(N)=O)C(=O)N[C@H](CCCNC(=N)N)C(=O)N[C@H](CCCNC(=N)N)C(=O)N[C@H](CCCNC(=N)N)C(=O)N[C@H](CS)C(=O)O` [TAT-Cd, NH2-GRKKRRQRRRC-COOH], the “effect of trypsinization of the peptide on its antiviral activity” value at trypsin is “no effect on antiviral activity”. The “inactivation of preadsorbed virus” value in the data set on HSV-1 KOS mutant hrR3 [10] (18° C.) is 93%. Further, the virus recovery in the data set with HSV-1 KOS mutant hrR3 [10] (18° C., 0.5 M NaCl) is listed as ≤ 5.6%. The “potentially released virus actually recovered in the medium” value in the data set on HSV-1 KOS mutant hrR3 [10] (1 h treatment at 4° C., 0.5 M NaCl) came out at 4.4%. Besides, the “infectious preadsorbed virus recovered in the culture medium (maximal)” value in the data set with HSV-1 KOS mutant hrR3 [10] (summary, FIG. 19) was “about 5%”. For the same molecule, in the data set with hrR3 (30 μM peptide 1 h at 4° C.), the “inhibition after rinsing with 0.5 M NaCl” value is on record as “completely reversed”. The infection blocked in the data set on hrR3 (30 μM peptide 1 h at 4° C., rinsed with culture medium alone) came to 90%. Also, in the data set with hrR3 (30 μM peptide, 37° C.), the “time needed to induce cellular resistance” value is “almost instantaneously”. In addition, the “plateau / maximal extent of virus inactivation” value in the data set on HSV-1 KOS mutant hrR3 [11] is ~100%. In addition, the “recovery of infectious virions, of the mock-treated virus” value in the data set with hrR3 virions (1 h at 37° C., pelleted immediately) is reported as < 1%. The “increase of viral yields by 0.5 M NaCl during 19 h incubation, of the mock-treated controls” value with hrR3 virions (19 h at 4° C.) is “about 1%”. Moreover, the “concentration at which not active against the H5 strain” value with H5 Avian Influenza virus was > 100 µM. Moreover, the punctate keratopathy result in the data set on cornea (calcein staining) is “very mild punctate keratopathy”. In the data set on cornea (four times a day for seven days), the blepharitis result is recorded as “mild blepharitis”.
